In one data set the target is T1, CDK1/CyclinB (Homo sapiens, UniProt P06493).
T1 construct: purchased proqinase 0134-0135-1
Kind of data set: Kinase activity assay, ADP-Glo (CDK1/CyclinB). Type of data set: biochemical. The note with it: Table 18; read-out: CDK1/B IC50.

In a further data set the target is T2, CDK9/CyclinT1 (Homo sapiens, UniProt P50750).
T2 construct: purchased Wuxi Biortus BP480/792/691
The experiment in a line: Kinase activity assay, ADP-Glo (CDK9/CyclinT1). Type of data set: biochemical. The note with it: Table 18; read-out: CDK9/T1 IC50. The procedure:
The starting concentration for the in vitro CDK (CDK2 and CDK9) kinase activity assay was 1 µM and was 3-fold diluted to a total of 10 concentrations, and each concentration was tested in duplicate. The compound PHA-793887 was used as a control compound.
A 1× kinase reaction buffer (40 mM Tris-HCl, pH 7.4, 20 mM […], 0.1 mg/mL BSA, 50 µM DTT), 1 volume of 5× kinase reaction buffer, and 4 volumes of water were prepared, and DTT (final concentration: 50 µM) was added. 50 nL of diluted compound working solution (final concentration of DMSO: 1%) was transferred to each well of a reaction plate (784075, Greiner) using Echo655. The reaction plate was sealed with a plate sealing film and centrifuged at 1000 g for 1 min. 2× enzyme (0.3 ng/µL CDK2/CyclinE1 or CDK9/CyclinT1) was prepared using the 1× kinase reaction buffer. 2.5 µL of the above kinase solution was added to each well. The reaction plate was sealed with a plate sealing film, centrifuged at 1000 g for 1 min, and left to stand at room temperature for 10 min. A mixture of 2× kinase substrate and ATP was prepared using the 1× kinase reaction buffer. 2× CDK2/CylinE1 kinase substrate was 0.4 mg/mL Histone H1 and 30 µM ATP. 2.5 µL of the mixture of 2× Histone H1 and ATP was added to the reaction plate. The plate was centrifuged at 1000 g for 30 s, and the reaction was started. […] The luminescence signals were obtained using Envision 2104. […]

For data set [1], the system named is DPX2 (HepG2 cells were stably transfected with the human PXR gene and the fluorescent reporter gene) cells. The experiment in a line: Cell viability in the PXR induction assay (CellTiter-Fluor). The data set is classed as cell-based. How it is done:
• 1. The potential of the test compounds to induce the activity of drug metabolism enzymes through in vitro activation of PXR was evaluated. […] […] Experimental procedures • 3.1. Preparation for plating • 1) 50 mL of FBS was added to 450 mL of cell culture medium. • 2) DPX2 cells were cultured in a T-75 culture flask in a 37 °C, 5% CO2 incubator with 95% relative humidity. When covering 80-90% of the bottom of the culture flask, the cells were digested. • 3) The top layer of cells cultured in the T-75 culture flask was washed with 8 mL of PBS, and the PBS was pipetted off. The cells were digested with 3 mL of pancreatin at 37 °C for about 5 min or until they were floating in the pancreatin. 10 mL (excessive) of a serum-containing culture medium was added to neutralize the pancreatin. • 4) The cell suspension was transferred to a conical-bottomed centrifuge tube and centrifuged at 120 g for 10 min. The cells were suspended in the plating culture medium, and the concentration was adjusted to 4 × 10^5 cells/mL. The diluted cells were added to a 96-well cell culture plate at 100 µL/well. The culture plate was placed in an incubator and incubated at 37 °C for 24 h before the PXR activation experiment. • 3.2. […] […] The final concentration of DMSO was 0.1%. 1 µL of DMSO was added to a well containing 1 mL of pre-incubated culture medium as a solvent control. • 2) The cell culture plate was taken out of the incubator, and the culture medium was discarded. The test compounds and the positive compound were added to appropriate wells at 100 µL/well, and each group was tested in duplicate. The cell plate was placed in an incubator and incubated for 24 h. • 3.3. Quantification of PXR activation • 1) After […] of compound treatment, PXR activation was quantified for the culture. • 2) The CellTiter-Fluor™ cell viability assay kit and the One-Glo Luciferase reagent were equilibrated to room temperature. The GF-AFC (10 µL) substrate was added to Assay Buffer (10 mL) to form a 2× reagent, and the reagent was then diluted to 1× with 10 mL of PBS; the ONE-Glo substrate was added to the ONE-Glo Luciferase Assay buffer. • 3) The cell culture plate was taken out of the incubator, and the culture medium in each well was discarded. The plate was washed twice with PBS. The 1× CellTiter-Fluor™ reagent was added to a sterilized reagent reservoir, and 50 µL was transferred to each well using a multi-channel pipette. The plate was incubated at 37 °C for 30 min. • 4) The 96-well cell plate was taken out of the incubator, and the fluorescence in each well was measured using a microplate reader put in the fluorescence mode at an excitation wavelength of 400 nm and an emission wavelength of 505 nm. • 5) The ONE-Glo reagent was poured into a reagent reservoir, and then 50 µL was transferred to each well using a multi-channel pipette. The reagent was gently and well mixed, and the mixture was incubated and well mixed at room temperature for 5 min. After the incubation, the luminescence in each well was measured using a luminometer.
The calculation formula for cell viability: Percent cell viability (%) = I(sample)/(I(vehicle) × 100 [formula]
I(sample) represents the fluorescence intensity of the sample, and I(vehicle) represents the fluorescence intensity of 0.1% DMSO to cells.

Another data set deals with CYP2D6 (Homo sapiens, UniProt P10635). The experiment in a line: biochemical.
[2] abbreviates: compound concentration 0.123 µM.

pIC50: −log10 of the molar value.

T1 sequence (P06493 whole entry): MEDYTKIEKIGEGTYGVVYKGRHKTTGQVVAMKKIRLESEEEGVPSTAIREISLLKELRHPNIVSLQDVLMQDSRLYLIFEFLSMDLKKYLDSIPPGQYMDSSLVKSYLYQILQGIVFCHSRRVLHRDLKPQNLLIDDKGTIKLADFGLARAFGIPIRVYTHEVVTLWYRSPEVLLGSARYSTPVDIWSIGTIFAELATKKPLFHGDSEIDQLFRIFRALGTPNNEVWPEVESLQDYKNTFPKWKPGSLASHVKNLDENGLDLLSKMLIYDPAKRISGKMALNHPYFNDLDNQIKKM
T1 sequence (P14635 whole entry partner): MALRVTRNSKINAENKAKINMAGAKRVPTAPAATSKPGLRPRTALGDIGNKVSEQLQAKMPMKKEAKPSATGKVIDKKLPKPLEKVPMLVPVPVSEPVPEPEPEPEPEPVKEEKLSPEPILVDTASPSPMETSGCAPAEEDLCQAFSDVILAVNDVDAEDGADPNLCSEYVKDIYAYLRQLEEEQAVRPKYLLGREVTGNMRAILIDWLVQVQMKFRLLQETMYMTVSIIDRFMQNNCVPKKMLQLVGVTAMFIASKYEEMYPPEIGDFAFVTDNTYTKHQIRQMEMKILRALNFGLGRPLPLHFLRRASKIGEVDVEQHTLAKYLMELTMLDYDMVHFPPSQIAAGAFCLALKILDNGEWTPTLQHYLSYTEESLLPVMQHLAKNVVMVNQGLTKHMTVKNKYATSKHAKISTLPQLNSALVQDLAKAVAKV
T2 sequence (P50750 whole entry, species assumed): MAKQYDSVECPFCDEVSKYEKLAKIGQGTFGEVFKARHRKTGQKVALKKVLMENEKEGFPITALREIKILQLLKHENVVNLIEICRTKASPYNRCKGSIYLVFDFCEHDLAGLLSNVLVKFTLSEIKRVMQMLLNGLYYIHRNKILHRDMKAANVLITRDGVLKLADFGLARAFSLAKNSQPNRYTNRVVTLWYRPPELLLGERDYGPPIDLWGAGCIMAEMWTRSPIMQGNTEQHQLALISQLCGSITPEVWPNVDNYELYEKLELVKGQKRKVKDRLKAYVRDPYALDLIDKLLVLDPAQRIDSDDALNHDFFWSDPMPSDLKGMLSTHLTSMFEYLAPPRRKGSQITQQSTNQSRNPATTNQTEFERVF
T2 sequence (O60563 whole entry partner, species assumed): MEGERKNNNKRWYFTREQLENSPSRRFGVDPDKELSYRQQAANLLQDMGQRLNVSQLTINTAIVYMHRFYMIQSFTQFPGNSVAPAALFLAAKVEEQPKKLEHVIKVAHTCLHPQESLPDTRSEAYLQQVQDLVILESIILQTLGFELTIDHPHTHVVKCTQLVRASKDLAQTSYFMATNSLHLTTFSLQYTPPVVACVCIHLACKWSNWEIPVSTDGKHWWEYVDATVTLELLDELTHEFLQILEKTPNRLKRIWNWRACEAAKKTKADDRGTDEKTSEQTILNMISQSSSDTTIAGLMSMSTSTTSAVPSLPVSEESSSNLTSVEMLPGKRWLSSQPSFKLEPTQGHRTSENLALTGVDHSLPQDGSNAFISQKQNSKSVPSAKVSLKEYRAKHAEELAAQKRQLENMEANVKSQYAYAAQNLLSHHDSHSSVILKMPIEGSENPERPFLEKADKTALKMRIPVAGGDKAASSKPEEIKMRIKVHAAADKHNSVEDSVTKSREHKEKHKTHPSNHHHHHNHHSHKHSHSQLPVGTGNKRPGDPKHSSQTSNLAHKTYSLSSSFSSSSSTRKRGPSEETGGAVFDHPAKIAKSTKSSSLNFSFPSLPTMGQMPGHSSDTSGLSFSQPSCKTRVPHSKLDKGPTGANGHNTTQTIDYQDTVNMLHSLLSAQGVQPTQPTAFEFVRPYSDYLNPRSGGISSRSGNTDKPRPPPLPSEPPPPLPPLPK
CYP2D6, sequence (P10635 whole entry): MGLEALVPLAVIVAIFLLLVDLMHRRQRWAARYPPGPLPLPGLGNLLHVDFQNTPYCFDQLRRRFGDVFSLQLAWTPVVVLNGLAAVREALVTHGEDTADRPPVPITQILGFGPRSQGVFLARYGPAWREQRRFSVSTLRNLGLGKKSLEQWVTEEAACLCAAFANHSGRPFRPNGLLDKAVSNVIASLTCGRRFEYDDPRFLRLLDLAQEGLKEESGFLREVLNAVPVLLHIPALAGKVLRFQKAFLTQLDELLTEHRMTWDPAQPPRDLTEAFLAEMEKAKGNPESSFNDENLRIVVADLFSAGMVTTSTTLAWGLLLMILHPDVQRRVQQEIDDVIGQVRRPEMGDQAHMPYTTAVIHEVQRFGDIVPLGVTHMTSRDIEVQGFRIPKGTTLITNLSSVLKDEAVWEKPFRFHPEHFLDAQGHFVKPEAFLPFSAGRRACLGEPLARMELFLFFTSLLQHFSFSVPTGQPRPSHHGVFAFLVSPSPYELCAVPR
Procedure for CYP2D6: The effects of different concentrations of the test compounds on the metabolic reactions of phenacetin (CYP1A2), diclofenac sodium (CYP2C9), S-mephenytoin (CYP2C19), bufuralol hydrochloride (CYP2D6), and midazolam (CYP3A4/5) were assessed by liquid chromatography-tandem mass spectrometry (LC/MS/MS).
Then, 200 µL of an acetonitrile solution containing 3% formic acid and 40 nM internal standard verapamil was added, and the mixture was centrifuged at 4000 rpm for 50 min. The mixture was cooled on ice for 20 min and centrifuged at 4000 rpm for 20 min to precipitate protein. 200 µL of the supernatant was taken for LC/MS/MS analysis.
The peak area was calculated based on the chromatogram. The residual activity proportion (%) was calculated using the following formula: peak area ratio = peak area of metabolite / peak area of internal standard [formula]
The half maximal inhibitory concentrations (IC50) against CYP were calculated using Excel XLfit 5.3.1.3.

Consider `C[C@H]1COc2c(-c3nc(N[C@@H]4CCOC[C@H]4O)ncc3Cl)cc(F)c3nc(C(C)(C)O)n1c23` (single isomer, unassigned) [Isomer 1 with a retention time of 2.078 min], for which the pIC50 was less than 6.00 at CDK1/CyclinB, less than 6.00 on CDK9/CyclinT1 and less than 4.52 on CYP2D6. Besides, the “Cell viability (%)” value in data set [1] (setting [2]) turned out to be 99.16%; in data set [1] (compound concentration 10.0 µM) it was 117.18%.

As for `C[C@@H]1COc2c(-c3nc(N[C@@H]4CCOC[C@H]4O)ncc3Cl)cc(F)c3nc(C(C)(C)O)n1c23` (single isomer, unassigned) [Isomer 2 with a retention time of 1.887 min], the pIC50 was less than 6.00 on CDK1/CyclinB, less than 6.00 on CDK9/CyclinT1 and less than 4.52 at CYP2D6. Moreover, the “Cell viability (%)” value in data set [1] (setting [2]) was determined as 102.41%; in data set [1] (compound concentration 10.0 µM), 108.37%.

The values above are taken from EP4567040A1, “CRYSTAL FORM OF FUSED TRICYCLIC DERIVATIVE AND PREPARATION METHOD” (Jiangsu Hengrui Pharmaceuticals Co., Ltd., priority 2022, dated 2024).
